In brackets after ≈: the same amount, converted by molar mass.
What was measured:
Staphylococcus aureus [1] = assay: Antibacterial activity against Staphylococcus aureus RN4220 expressing MsrA efflux protein assessed as bacterial growth inhibition incubated for 24 hrs by resazurin based microdilution assay; format: functional
Staphylococcus aureus [2] = assay: Antibacterial activity against Staphylococcus aureus IS-58 expressing TetK efflux protein assessed as bacterial growth inhibition incubated for 24 hrs by resazurin based microdilution assay; format: functional
Staphylococcus aureus [3] = assay: Antibacterial activity against Staphylococcus aureus 1199B expressing NorA efflux protein assessed as bacterial growth inhibition incubated for 24 hrs by resazurin based microdilution assay; format: functional
Staphylococcus aureus [4] = assay: Antibacterial activity against wild type Staphylococcus aureus 1199 assessed as bacterial growth inhibition incubated for 24 hrs by resazurin based microdilution assay; format: functional
Staphylococcus aureus [5] = assay: Antibacterial activity against fluoroquinolone-resistant Staphylococcus aureus 1199B overexpressing NorA gene assessed as bacterial growth inhibition by microdilution method; format: functional
[6] = molecular target: Quinolone resistance protein NorA (Staphylococcus aureus, UniProt P0A0J7); assay: Inhibition of NorA efflux pump in Staphylococcus aureus 1199B overexpressing NorA gene assessed as reduction in EtBr efflux inhibition by spectrofluorometric assay
[7] = molecular target: T1, Quinolone resistance protein NorA (Staphylococcus aureus) (UniProt P0A0J7); assay: Inhibition of NorA efflux pump in Staphylococcus aureus 1199B overexpressing NorA gene assessed as efflux inhibition at 2 mg/L by Hoechst 33342 staining based fluorescence assay
T1 sequence (whole entry): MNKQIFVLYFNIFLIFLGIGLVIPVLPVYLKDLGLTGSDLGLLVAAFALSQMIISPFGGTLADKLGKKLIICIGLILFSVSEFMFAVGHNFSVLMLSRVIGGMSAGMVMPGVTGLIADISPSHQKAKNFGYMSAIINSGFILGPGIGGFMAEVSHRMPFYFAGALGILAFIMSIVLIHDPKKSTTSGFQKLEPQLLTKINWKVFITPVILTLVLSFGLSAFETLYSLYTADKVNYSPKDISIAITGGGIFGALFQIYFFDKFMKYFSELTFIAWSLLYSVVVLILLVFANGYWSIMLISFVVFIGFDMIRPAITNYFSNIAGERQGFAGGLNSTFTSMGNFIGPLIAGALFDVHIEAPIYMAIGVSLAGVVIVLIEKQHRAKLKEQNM

[8] = molecular target: T1, Quinolone resistance protein NorA (Staphylococcus aureus); assay: Inhibition of NorA efflux pump in Staphylococcus aureus 1199B overexpressing NorA efflux pump assessed as reduction in ciprofloxacin MIC at […] by resazurin based assay (Rvb= 6.25 ug/ml)
LS180 = assay: Cytotoxicity against human LS180 cells; format: functional, cell-based
[9] = molecular target: ATP-dependent translocase ABCB1 (Homo sapiens, UniProt P08183); assay: Inhibition of P-gp mediated efflux in human LS180 cells using digoxin as substrate incubated for 90 mins by fluorescence assay; format: cell-based
Staphylococcus aureus [10] = assay: Synergistic antimicrobial activity against Staphylococcus aureus 1199B overexpressing NorA efflux pump assessed as norfloxacin MIC incubated for 24 hrs by broth dilution method; format: functional
[11] = test system: Staphylococcus haemolyticus; assay: Antibacterial activity against Staphylococcus haemolyticus assessed as bacterial growth inhibition by microdilution assay; format: functional
[12] = test system: Staphylococcus haemolyticus; assay: Antibacterial activity against Staphylococcus haemolyticus grown in blood assessed as bacterial growth inhibition by microdilution assay; format: functional
[13] = molecular target: UDP-N-acetylmuramoyl-L-alanyl-D-glutamate--2,6-diaminopimelate ligase (Mycobacterium tuberculosis (strain ATCC 25618 / H37Rv), UniProt P9WJL3); assay: Inhibition of MurE ligase activity in Mycobacterium tuberculosis assessed as release of inorganic phosphate by hydrolysis of ATP using UDP-MurNAc-l-Ala-d-Glu as substrate in presence of ATP incubated for 30 mins by absorbance assay
MCF7 = assay: Cytotoxicity against human MCF7 cells assessed as reduction in cell viability by sulforhodamine B assay; format: functional, cell-based
A549 = assay: Cytotoxicity against human A549 cells assessed as reduction in cell viability by sulforhodamine B assay; format: functional, cell-based
WI-38 = assay: Cytotoxicity against human WI-38 cells assessed as reduction in cell viability by sulforhodamine B assay; format: functional, cell-based
Staphylococcus aureus [14] = assay: Antibacterial activity against Staphylococcus aureus 1199B overexpressing NorA efflux protein assessed as bacterial growth inhibition; format: functional
Staphylococcus aureus [15] = assay: Antibacterial activity against Staphylococcus aureus K1758 with NorA deletion mutant assessed as bacterial growth inhibition; format: functional
Staphylococcus aureus [16] = assay: Synergistic antibacterial activity against Staphylococcus aureus 1199B overexpressing NorA efflux protein assessed as fractional inhibitory concentration index in presence of norfloxacin by checkerboard assay; format: functional
Staphylococcus aureus [17] = assay: Synergistic antibacterial activity against Staphylococcus aureus 1199B overexpressing NorA efflux protein assessed as fractional inhibitory concentration index in presence of ciprofloxacin by checkerboard assay; format: functional
Staphylococcus aureus [18] = assay: Synergistic antibacterial activity against Staphylococcus aureus 1199B overexpressing NorA efflux protein assessed as fractional inhibitory concentration index in presence of moxifloxacin by checkerboard assay; format: functional
Staphylococcus aureus [19] = assay: Synergistic antibacterial activity against Staphylococcus aureus 1199B overexpressing NorA efflux protein assessed as fractional inhibitory concentration index in presence of chloramphenicol by checkerboard assay; format: functional
Staphylococcus aureus [20] = assay: Synergistic antibacterial activity against Staphylococcus aureus 1199B overexpressing NorA gene assessed as fractional inhibitory concentration index at 128 ug/ml in presence of norfloxacin; format: functional; conditions: dose 128 µg/ml

For `CC1=CC(=O)c2ccccc2C1=O` [MENADIONE], the MIC (Staphylococcus aureus [1]) was 64 µg/mL (≈ 372 µM), the MIC (Staphylococcus aureus [2]) was 64 µg/mL (≈ 372 µM) and the MIC (Staphylococcus aureus [3]) was 64 µg/mL (≈ 372 µM). For the same molecule, the MIC (Staphylococcus aureus [4]) was 64 µg/mL (≈ 372 µM).

With `C[C@@H]1O[C@@H](Oc2c(-c3ccc(O)cc3)oc3cc(O)cc(O)c3c2=O)[C@H](OC(=O)/C=C/c2ccc(O)cc2)[C@H](O)[C@H]1OC(=O)/C=C/c1ccc(O)cc1` the MIC (Staphylococcus aureus [5]) was 35 µM, the IC50 [6] was 2 µM and the inhibition [7] was 40%. For the same molecule, the MIC [8] was 0.78 µg/mL.

For `CC(=O)c1c(-c2ccc(F)cc2)cn(-c2ccc(C)cc2)c1C`, the IC50 (LS180) was greater than 100 µM and the IC50 [9] was 11.2 µM.

In the case of `COC[C@@H](Cc1ccc(OC)c(OC)c1)[C@@H](COC)Cc1ccc(OC)c(OC)c1`, the MIC (Staphylococcus aureus [10]) is reported as 12.7 µg/mL.

Molecule `CC[C@H](C)C(=O)c1c(O)cc(O)cc1OC/C=C(\C)CCC=C(C)C` [OLYMPICIN A] has an MIC [11] of no less than 16 µg/mL, an MIC [12] greater than 32 µg/mL and an IC50 [13] of 75 µM. It also gave an IC50 (MCF7) of 12.5 µM, an IC50 (A549) of 10.5 µM and an IC50 (WI-38) of 8.9 µM.

With `Nc1ccccc1-c1cc2ccccc2[nH]1` the MIC (Staphylococcus aureus [14]) was 128 µg/mL (≈ 615 µM), the MIC (Staphylococcus aureus [15]) was 64 µg/mL (≈ 307 µM) and the “fractional inhibitory concentration index (FICI)” value (Staphylococcus aureus [16]) was “>=0.5”. For the same molecule, the “fractional inhibitory concentration index (FICI)” value (Staphylococcus aureus [17]) was “>=0.5”, the “fractional inhibitory concentration index (FICI)” value (Staphylococcus aureus [18]) was “>=0.5” and the “fractional inhibitory concentration index (FICI)” value (Staphylococcus aureus [19]) was “>=0.5”.

In the case of `COc1cc(-c2oc3cc(OC)c(OC)c(O)c3c(=O)c2OC)ccc1O` [CHRYSOSPLENOL B], the “fractional inhibitory concentration index (FICI)” value (Staphylococcus aureus [20]) is reported as 0.375.
